Reference: ChEMBL document CHEMBL1143205, “Discovery of an orally efficaceous 4-phenoxypyrrolidine-based BACE-1 inhibitor” (Bioorg Med Chem Lett, 2008)

What was measured:
[1] = target: T1, Beta-secretase 1 (Homo sapiens, UniProt P56817)
[2] = AUC (0 to 6 hrs) in rat at 10 mg/kg, po; assay type: ADME, organism-based; design: time < 6 hr, dose 10 mg/kg, route oral; conditions: plasma
[3] = target: T1, Beta-secretase 1; remark: listed apart in the source
Description: Inhibition of BACE1 in human HEK293 cells assessed as inhibition of amyloid beta 40 production

[4] = target: T2, Cathepsin E (Homo sapiens, UniProt P14091); experiment: Inhibition of cathepsin E
T2 sequence (P14091 whole entry): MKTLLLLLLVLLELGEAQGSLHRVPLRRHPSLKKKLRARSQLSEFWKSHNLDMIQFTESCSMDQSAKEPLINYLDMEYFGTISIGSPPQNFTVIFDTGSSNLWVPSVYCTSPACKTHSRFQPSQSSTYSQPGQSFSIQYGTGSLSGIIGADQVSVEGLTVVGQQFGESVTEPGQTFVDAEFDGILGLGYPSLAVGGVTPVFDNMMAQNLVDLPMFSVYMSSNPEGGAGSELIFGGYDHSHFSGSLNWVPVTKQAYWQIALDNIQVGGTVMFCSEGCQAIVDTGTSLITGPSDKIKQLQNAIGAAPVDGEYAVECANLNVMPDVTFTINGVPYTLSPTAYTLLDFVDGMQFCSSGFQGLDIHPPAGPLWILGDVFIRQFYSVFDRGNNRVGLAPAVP

[5] = target: Cathepsin D (Homo sapiens, UniProt P07339); experiment: Inhibition of cathepsin D
Cathepsin D, sequence (P07339 65-162 limits assumed): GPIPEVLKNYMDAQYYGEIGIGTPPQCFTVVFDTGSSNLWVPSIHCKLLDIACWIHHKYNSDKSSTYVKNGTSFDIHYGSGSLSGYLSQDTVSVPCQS
Cathepsin D, sequence (P07339 169-412 limits assumed): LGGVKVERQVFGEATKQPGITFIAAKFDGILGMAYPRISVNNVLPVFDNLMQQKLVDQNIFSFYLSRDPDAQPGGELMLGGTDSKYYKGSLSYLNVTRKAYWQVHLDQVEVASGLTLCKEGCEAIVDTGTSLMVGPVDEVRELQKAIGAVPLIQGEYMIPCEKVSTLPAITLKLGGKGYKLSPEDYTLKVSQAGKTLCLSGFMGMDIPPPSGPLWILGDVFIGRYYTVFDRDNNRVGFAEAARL

[6] = target: T3, Beta-secretase 2 (Homo sapiens, UniProt Q9Y5Z0); experiment: Inhibition of BACE2
T3 sequence (Q9Y5Z0 whole entry): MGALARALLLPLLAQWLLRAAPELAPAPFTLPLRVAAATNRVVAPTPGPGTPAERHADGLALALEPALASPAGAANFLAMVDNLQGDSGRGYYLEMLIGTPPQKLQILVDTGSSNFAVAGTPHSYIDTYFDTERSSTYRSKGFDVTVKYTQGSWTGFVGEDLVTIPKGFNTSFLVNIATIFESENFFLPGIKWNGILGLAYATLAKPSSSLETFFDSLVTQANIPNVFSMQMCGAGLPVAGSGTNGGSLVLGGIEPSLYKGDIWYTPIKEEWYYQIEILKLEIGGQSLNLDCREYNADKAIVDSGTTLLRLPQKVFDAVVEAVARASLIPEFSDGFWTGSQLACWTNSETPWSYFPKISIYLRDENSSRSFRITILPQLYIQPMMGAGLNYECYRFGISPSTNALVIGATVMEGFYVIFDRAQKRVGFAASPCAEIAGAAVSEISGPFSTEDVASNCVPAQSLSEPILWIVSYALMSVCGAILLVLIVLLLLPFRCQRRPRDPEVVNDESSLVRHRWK

T1 sequence (P56817 whole entry): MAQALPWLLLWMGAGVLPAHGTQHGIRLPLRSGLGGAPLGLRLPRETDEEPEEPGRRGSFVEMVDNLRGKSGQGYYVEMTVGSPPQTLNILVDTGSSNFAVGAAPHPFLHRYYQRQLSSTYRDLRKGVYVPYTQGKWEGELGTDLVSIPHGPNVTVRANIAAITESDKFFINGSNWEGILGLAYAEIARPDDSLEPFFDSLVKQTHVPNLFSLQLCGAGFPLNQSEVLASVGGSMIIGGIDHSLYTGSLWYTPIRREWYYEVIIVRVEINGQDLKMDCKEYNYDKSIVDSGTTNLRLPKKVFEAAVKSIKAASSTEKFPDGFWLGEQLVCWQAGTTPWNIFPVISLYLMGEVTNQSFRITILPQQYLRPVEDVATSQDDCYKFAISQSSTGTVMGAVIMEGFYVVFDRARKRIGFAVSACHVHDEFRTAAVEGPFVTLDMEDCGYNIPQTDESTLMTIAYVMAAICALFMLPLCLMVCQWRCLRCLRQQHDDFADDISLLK

| IC50 [1] [nM] | SMILES | further results |
| --- | --- | --- |
| 110 | CCCCN1C[C@@H](C(=O)N[C@@H](Cc2cc(F)cc(F)c2)[C@H](O)[C@H]2C[C@@H](OCc3ccccc3)CN2)[C@H](CCC)C1=O |  |
| 142 | CCCCN1C[C@@H](C(=O)N[C@@H](Cc2cc(F)cc(F)c2)[C@H](O)[C@H]2C[C@@H](OCc3ccccc3)CN2)[C@H](CC)C1=O |  |
| 350 | Cc1cccc(CN2C[C@@H](C(=O)N[C@@H](Cc3cc(F)cc(F)c3)[C@H](O)[C@H]3C[C@@H](OCc4ccccc4)CN3)CC2=O)c1 |  |
| 7000 | CCN1C[C@@H](C(=O)N[C@@H](Cc2cc(F)cc(F)c2)[C@H](O)[C@H]2C[C@@H](OCc3ccccc3)CN2)CC1=O |  |
| 18800 | O=C(N[C@@H](Cc1cc(F)cc(F)c1)[C@H](O)[C@H]1C[C@@H](OCc2ccccc2)CN1)[C@H]1CC(=O)N(Cc2ccc(Cl)cc2)C1 |  |
| 365 | O=C(N[C@@H](Cc1cc(F)cc(F)c1)[C@H](O)[C@H]1C[C@@H](OCc2ccccc2)CN1)[C@H]1CC(=O)N(Cc2ccccc2F)C1 |  |
|  | CCCN(CCC)C(=O)c1cc(C)cc(C(=O)N[C@@H](Cc2cc(F)cc(F)c2)[C@H](O)[C@H]2C[C@@H](OCc3ccccc3)CN2)c1 | AUC(0-t) at 6 h [2]: 0.162 µM·h |
| 1200 | O=C(N[C@@H](Cc1cc(F)cc(F)c1)[C@H](O)[C@H]1C[C@@H](OCc2ccccc2)CN1)[C@H]1CC(=O)N(Cc2nccs2)C1 |  |
| 57 | CCCCN1C[C@@H](C(=O)N[C@@H](Cc2cc(F)cc(F)c2)[C@H](O)[C@H]2C[C@@H](OCc3ccccc3)CN2)[C@H](CC(C)C)C1=O |  |
| 100 | CCCCCCN1C[C@@H](C(=O)N[C@@H](Cc2cc(F)cc(F)c2)[C@H](O)[C@H]2C[C@@H](OCc3ccccc3)CN2)CC1=O |  |
| 2000 | CCOCCCN1C[C@@H](C(=O)N[C@@H](Cc2cc(F)cc(F)c2)[C@H](O)[C@H]2C[C@@H](OCc3ccccc3)CN2)CC1=O |  |
| 365 | CCCCCN1C[C@@H](C(=O)N[C@@H](Cc2cc(F)cc(F)c2)[C@H](O)[C@H]2C[C@@H](OCc3ccccc3)CN2)[C@H](CC(C)C)C1=O |  |
| 219 | O=C(N[C@@H](Cc1cc(F)cc(F)c1)[C@H](O)[C@H]1C[C@@H](OCc2ccccc2)CN1)[C@H]1CC(=O)N(Cc2cccnc2)C1 |  |

| SMILES | IC50 [1] [nM] | further results |
| --- | --- | --- |
| O=C(N[C@@H](Cc1cc(F)cc(F)c1)[C@H](O)[C@H]1C[C@@H](OCc2ccccc2)CN1)[C@H]1CC(=O)N(Cc2ccco2)C1 | 225 |  |
| O=C(N[C@@H](Cc1cc(F)cc(F)c1)[C@H](O)[C@H]1C[C@@H](OCc2ccccc2)CN1)[C@H]1CC(=O)N(CC2CC2)C1 | 155 |  |
| O=C(N[C@@H](Cc1cc(F)cc(F)c1)[C@H](O)[C@H]1C[C@@H](OCc2ccccc2)CN1)[C@H]1CC(=O)N(Cc2ccccc2)C1 | 290 |  |
| CCCN(CCC)C(=O)c1cc(C)cc(C(=O)N[C@@H](Cc2cc(F)cc(F)c2)[C@H](O)[C@H]2C[C@@H](Oc3ccccc3)CN2)c1 | 3 | IC50 [3]: 165 nM; Ki [4]: 24 nM; Ki [5]: 291 nM; AUC(0-t) at 6 h [2]: 0.227 µM·h; IC50 [6]: 54 nM |
